Assay results from patent US20240285580A1, “COMPOSITIONS AND METHODS FOR EXTENDED RELEASE CROMAKALIM THERAPY” (Qlaris Bio, Inc., priority 2021, published 2024).
Counter-ions that a name gives are not always drawn.

How the values were obtained:
[1] = trials terminated; most likely due to poor bioavailability; cited from earlier work
[2] = test system: isolated rat mesenteric lymph vessels; conditions: cited from earlier work; for rhythmic contractions of isolated rat mesenteric lymph vessels: exposure to KATP channel openers
[3] = cited from earlier work
[4] = in vivo; cited from earlier work
KATP channels = conditions: membrane patches from rabbit mesenteric arterial smooth muscle cells, in the presence of ATP; cited from earlier work
CD31 and VE-Cadherin = experiment: Expression of biomarker proteins for hyperemia and vessel integrity; conditions: compared to Y-27632, a Rho kinase inhibitor
From the text: Furthermore, the effect of levcromakalim on selected biomarkers for hyperemia and perturbations to vessel integrity has been established.

impact on expression of measured proteins indicative of tissue and vessel integrity (CD31 and VE-Cadherin)	Structure (SMILES)	outcome of human clinical trials [1]	rhythmic contractions of isolated rat mesenteric lymph vessels [2]	contractions of the vessels at increasing concentrations ([2]; increasing concentrations, flow impaired by attenuating frequency and amplitude)	solubility in water [3]	effect on blood pressure [4]	increase of open-state probability (Popen) of single KATP channels (KATP channels)
–	CC1(C)Oc2ccc(C#N)cc2C(N2CCCC2=O)C1O (stereo not shown) [Cromakalim, cromakalim]	lack of activity	progressively impaired	ultimately abolished the contractions	substantially insoluble in water	lower blood pressure	more than 9 fold
no significant impact	CC1(C)Oc2ccc(C#N)cc2[C@@H](N2CCCC2=O)[C@@H]1O [Levcromakalim, levcromakalim]	–	–	–	–	–	–
–	Nc1cc(N2CCCCC2)nc(N)[n+]1OS(=O)(=O)[O-] [minoxidil sulfate]	–	progressively impaired	–	–	–	–
–	CC1=NS(=O)(=O)c2cc(Cl)ccc2N1 [diazoxide]	–	progressively impaired	–	–	lower blood pressure	–
